Test results from US20230144344A1, “COMPOSITION FOR PREVENTING OR TREATING CARDIOVASCULAR AND METABOLIC DISEASES COMPRISING ELAEOCARPUS PETIOLATUS” (SEOUL NATIONAL UNIVERSITY HOSPITAL, priority 2020, published 2023).

Columns and labels:
Resistin-CAP1 binding = biological target: T1, Resistin-CAP1 binding (Homo sapiens, UniProt Q9HD89); experiment: Resistin-CAP1 competitive binding assay (enzyme immunological method); details: for Resistin-CAP1 binding inhibitory effect: in words, FIG. 5a-5c; for binding inhibitory activity of Resistin-CAP1: 25 μM, 50 μM, and 100 μM, FIG. 8
T1 sequence (Q9HD89 19-108): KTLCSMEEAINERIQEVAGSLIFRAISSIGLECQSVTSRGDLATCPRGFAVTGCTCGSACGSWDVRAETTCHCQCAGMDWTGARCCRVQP
Method: Recombinant CAP-1 protein was attached to a plate for immunoassay overnight, washed, and then the attachment of other proteins was blocked with 1% BSA/PBS solution, and the recombinant Resistin to which mouse Fc was attached and the sample were pre-reacted for 1 hour. Then, the solution was dispensed on the plate and reacted at room temperature for 2 hours. After washing the plate, HRP to be attached to the mFc of Resistin bound to CAP-1 was dispensed and reacted for 1 hour. After washing, the substrate was dispensed and reacted for 30 minutes by HRP, and absorbance was measured at a wavelength of 450 nm with a microplate meter.

[1] = test system: Resistin-induced TNF-α production in THP-1 cells; experiment: TNF-alpha assay: Resistin-induced TNF-α production in THP-1 cells (ELISA); format: cell-based, human; details: for inhibitory effect on TNF-α induced by Resistin: in words, summary of Table 3b
Method: TNF-alpha assay was performed to examine the anti-inflammatory effect induced by the Resistin-CAP1 binding on the Elaeocarpus petiolatus extracts, fractions, and single compounds isolated therefrom.
After culturing for 1 hour, 2 μg/mL of human recombinant Resistin (Biovision) was treated and further cultured for 6 hours. Thereafter, the supernatant was recovered and stored at −70° C.
For TNF-alpha assay, Human TNF-alpha ELISA kit (BD bioscience) was used and analyzed according to the manufacturer's protocol.

THP-1 cells = experiment: Cell viability of THP-1 cells (CytoX)
Method: After 1 hour, each sample was treated at a concentration of 5 μM. After culturing for 24 hours, 5 μL of CytoX (LPS solution, Korea) solution was added into each well and incubated for another 4 hours. Then, absorbance was measured at 450 nm. The cell viability was calculated according to the following equation with the value of the negative control treated with DMSO as 100%.

[2] = 10 μg/mL, RETN +, THP-1 cells, isolated compounds

| Compound | Resistin-CAP1 binding inhibitory effect (Resistin-CAP1 binding) | TNF-α Inhibition Rate (%, Average ± Standard Deviation) ([1]; 5 μg/mL, RETN +, THP-1 cells) [%] | TNF-α Inhibition Rate (%, Average ± Standard Deviation) [1, 2] [%] | TNF-α Inhibition Rate (%, Average ± Standard Deviation) ([1]; 20 μg/mL, RETN +, THP-1 cells) [%] | inhibitory effect on TNF-α induced by Resistin [1] | Viability (%, Average ± Standard Deviation) (THP-1 cells; 2.5 μg/mL) [%] | Viability (%, Average ± Standard Deviation) (THP-1 cells; 5 μg/mL) [%] | Viability (%, Average ± Standard Deviation) (THP-1 cells; 10 μg/mL, isolated compounds) [%] | Viability (%, Average ± Standard Deviation) (THP-1 cells; 20 μg/mL) [%] | inhibition at 5 µg/mL ([1]; Homo sapiens, 5 μg/mL, RETN +, THP-1 cells, read-out: TNF-α Inhibition Rate (%, Average ± Standard Deviation)) [%] | inhibition at 10 µg/mL ([1]; Homo sapiens, 10 μg/mL, RETN +, THP-1 cells, isolated compounds, read-out: TNF-α Inhibition Rate (%, Average ± Standard Deviation)) [%] | inhibition at 20 µg/mL ([1]; Homo sapiens, 20 μg/mL, RETN +, THP-1 cells, read-out: TNF-α Inhibition Rate (%, Average ± Standard Deviation)) [%] | binding inhibitory activity of Resistin-CAP1 (Resistin-CAP1 binding) |
| --- | --- | --- | --- | --- | --- | --- | --- | --- | --- | --- | --- | --- | --- |
| Isorhamnetin-3-O-β-D-hexoside [Isorhamnetin-3-O-β-D-hexoside (6E)] | concentration-dependent inhibitory effect | 43.06 ± 10.44 | 51.29 ± 5.76 | 59.53 ± 9.02 | exhibited an inhibitory effect on TNF-α production | 101.71 ± 4.56 | 101.88 ± 0.10 | 95.02 ± 0.20 | 94.72 ± 0.28 |  |  |  |  |
| O=c1oc2c(O)c(O)cc3c(=O)oc4c(O)c(O)cc1c4c23 [Ellagic acid (6D), Ellagic acid] | concentration-dependent inhibitory effect |  |  |  | exhibited an inhibitory effect on TNF-α production | 96.89 ± 0.05 | 98.73 ± 0.91 | 94.38 ± 0.13 | 89.21 ± 1.01 | 16.4 ± 5.12 | 27.4 ± 4.5 | -18.6 ± 3.16 |  |
| O=c1c(O)c(-c2cc(O)c(O)c(O)c2)oc2cc(O)cc(O)c12 [myricetin, Myricetin, reference compound] |  |  |  |  |  |  |  |  |  |  |  |  | no inhibitory activity |
| C[C@H]1O[C@@H](Oc2c(-c3cc(O)c(O)c(O)c3)oc3cc(O)cc(O)c3c2=O)[C@@H](O)[C@@H](O)[C@@H]1O [Myricetin-3-O-α-L-rhamnoside (5E2), Myricetin-3-O-α-L-rhamnoside] | concentration-dependent inhibitory effect | 28.57 ± 6.79 | 24.13 ± 3.31 | 33.64 ± 9.21 | exhibited an inhibitory effect on TNF-α production | 99.54 ± 3.22 | 106.14 ± 0.93 | 98.85 ± 1.07 | 100.12 ± 0.64 |  |  |  | inhibited the binding of Resistin-CAP1 in a concentration-dependent manner |
